Measured values taken from the supplement of paper PMC5908809.

Key:
[1] = system: normal NK cells expanded with K562-aAPC; experiment: percent inhibition of viability; higher = more inhibition; conditions: 72 h, IL-2 2.5 ng/mL
Description: (§1)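 Drug sensitivity and resistance testing on K562-aAPC-expanded normal NK cells: 5 concentrations (10-fold steps over a 10,000-fold range), 72 h at 37 °C, viability by CellTiter-Glo normalised to DMSO and benzethonium chloride controls; DSS from the fitted curve.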

[2] = system: normal primary NK cells, pool 2 (3 donors) (IL-2 2.5 ng/mL); experiment: drug sensitivity score (DSS) (DSS units); higher = more sensitive; extreme values may be limits of the assay; conditions: 72 h
IMC-1 (IL-2 20 ng/mL) [3] = experiment: as above; conditions: 72 h
[4] = system: normal primary NK cells, pool 3 (3 donors) (IL-2 2.5 ng/mL); experiment: as above; conditions: 72 h
[5] = system: normal NK cells expanded with K562-aAPC; experiment: as above; conditions: 72 h; IL-2 2.5 ng/mL
Description: as §1

[6] = system: normal primary NK cells, pool 2 (3 donors) (IL-2 2.5 ng/mL); experiment: percent inhibition of viability; higher = more inhibition; conditions: 72 h
IMC-1 (IL-2 20 ng/mL) [7] = experiment: as above; conditions: 72 h
[8] = system: normal primary NK cells, pool 3 (3 donors) (IL-2 2.5 ng/mL); experiment: as above; conditions: 72 h
[9] = system: normal primary NK cells, pool 1 (3 donors) (IL-2 2.5 ng/mL); experiment: drug sensitivity score (DSS) (DSS units); higher = more sensitive; extreme values may be limits of the assay; conditions: 72 h
YT (IL-2 2.5 ng/mL) [10] = experiment: as above; conditions: 72 h
SNK-6 (IL-2 2.5 ng/mL) [11] = experiment: as above; conditions: 72 h
NK-92 (IL-2 2.5 ng/mL) [12] = experiment: as above; conditions: 72 h
NK-YS (IL-2 2.5 ng/mL) [13] = experiment: as above; conditions: 72 h
[14] = system: normal primary NK cells, pool 1 (3 donors), resting (IL-2 0 ng/mL); experiment: as above; conditions: 72 h
KHYG-1 (IL-2 2.5 ng/mL) [15] = experiment: as above; conditions: 72 h
KAI3 (IL-2 2.5 ng/mL) [16] = experiment: as above; conditions: 72 h
DERL-7 (IL-2 2.5 ng/mL) [17] = experiment: as above; conditions: 72 h
NKL (IL-2 2.5 ng/mL) [18] = experiment: as above; conditions: 72 h
[19] = system: normal primary NK cells, pool 1 (3 donors) (IL-2 2.5 ng/mL); experiment: percent inhibition of viability; higher = more inhibition; conditions: 72 h
YT (IL-2 2.5 ng/mL) [20] = experiment: as above; conditions: 72 h
SNK-6 (IL-2 2.5 ng/mL) [21] = experiment: as above; conditions: 72 h
NK-92 (IL-2 2.5 ng/mL) [22] = experiment: as above; conditions: 72 h
NK-YS (IL-2 2.5 ng/mL) [23] = experiment: as above; conditions: 72 h
[24] = system: normal primary NK cells, pool 1 (3 donors), resting (IL-2 0 ng/mL); experiment: as above; conditions: 72 h
KHYG-1 (IL-2 2.5 ng/mL) [25] = experiment: as above; conditions: 72 h
KAI3 (IL-2 2.5 ng/mL) [26] = experiment: as above; conditions: 72 h
DERL-7 (IL-2 2.5 ng/mL) [27] = experiment: as above; conditions: 72 h
NKL (IL-2 2.5 ng/mL) [28] = experiment: as above; conditions: 72 h

c1cc(CN2CCCNCCNCCCNCC2)ccc1CN1CCCNCCNCCCNCC1 [Plerixafor] (max concentration tested 10000 nM)
percent inhibition of viability [%]
Conditions	1 nM	10 nM	100 nM	1000 nM	10000 nM
IMC-1 (IL-2 20 ng/mL) [7]	-6.62	-2.25	-2.63	-6.11	12
[1]	-8.84	-11.8	-6.04	-7.74	-11.7
[6]	-13.2	-6.73	-6.7	-15	-10.7
[8]	-11.8	-3.1	-2.77	-16.3	-17.5

Conditions	drug sensitivity score
IMC-1 (IL-2 20 ng/mL) [3]	0.01
[2]	0
[4]	0
[5]	0

CON(C)C(=O)N1N=C(c2cc(F)ccc2F)S[C@@]1(CCCN)c1ccccc1 [ARRY-520] (max concentration tested 1000 nM)
Conditions	drug sensitivity score
DERL-7 (IL-2 2.5 ng/mL) [17]	30.5
KAI3 (IL-2 2.5 ng/mL) [16]	14.6
KHYG-1 (IL-2 2.5 ng/mL) [15]	30.3
NK-92 (IL-2 2.5 ng/mL) [12]	22.4
NK-YS (IL-2 2.5 ng/mL) [13]	23.1
NKL (IL-2 2.5 ng/mL) [18]	26
SNK-6 (IL-2 2.5 ng/mL) [11]	27.8
YT (IL-2 2.5 ng/mL) [10]	13.2
[9]	0
[14]	0

percent inhibition of viability [%]
Conditions	DERL-7 (IL-2 2.5 ng/mL) [27]	KAI3 (IL-2 2.5 ng/mL) [26]	KHYG-1 (IL-2 2.5 ng/mL) [25]	NK-92 (IL-2 2.5 ng/mL) [22]	NK-YS (IL-2 2.5 ng/mL) [23]	NKL (IL-2 2.5 ng/mL) [28]	SNK-6 (IL-2 2.5 ng/mL) [21]	YT (IL-2 2.5 ng/mL) [20]	[19]	[24]
0.1 nM	-10.8	-7.27	-0.04	-13.1	-0.87	1.77	21	1.27	-14.6	-28.7
1 nM	1.72	-8.08	-0.06	-13.4	0.68	-1.49	12.7	1.15	-9.86	-37.1
10 nM	98.7	45.9	98.8	45.1	71.2	78.1	81.8	7.04	-12	-37.4
100 nM	100	49.6	107	92.3	77	93.3	88	65.3	2.21	-9.59
1000 nM	100	49.5	103	89.1	76.6	87.7	87.7	65.7	-7.49	-26.9

CCN(c1cc(-c2ccc(CN3CCOCC3)cc2)cc(C(=O)NCc2c(C)cc(C)[nH]c2=O)c1C)C1CCOCC1 [Tazemetostat] (max concentration tested 10000 nM)
percent inhibition of viability [%]
Conditions	1 nM	10 nM	100 nM	1000 nM	10000 nM
IMC-1 (IL-2 20 ng/mL) [7]	-6.56	0.55	-2.13	1.66	2.45
[1]	-1.54	2.17	-0.28	10.4	0.84
[6]	-7.19	-1.07	5.71	-5.28	7.6
[8]	-4.31	-2.24	8.29	-7.9	0.75

Conditions	drug sensitivity score
IMC-1 (IL-2 20 ng/mL) [3]	0
[2]	0
[4]	0
[5]	0

CCN(c1cc(-c2ccc(CN3CCOCC3)cc2)cc(C(=O)NCc2c(C)cc(C)[nH]c2=O)c1C)C1CCOCC1 [E7438] (max concentration tested 10000 nM)
Conditions	drug sensitivity score
DERL-7 (IL-2 2.5 ng/mL) [17]	0
KAI3 (IL-2 2.5 ng/mL) [16]	0
KHYG-1 (IL-2 2.5 ng/mL) [15]	0
NK-92 (IL-2 2.5 ng/mL) [12]	3.24
NK-YS (IL-2 2.5 ng/mL) [13]	0
NKL (IL-2 2.5 ng/mL) [18]	0
SNK-6 (IL-2 2.5 ng/mL) [11]	0
YT (IL-2 2.5 ng/mL) [10]	0
[9]	0
[14]	0

percent inhibition of viability [%]
Conditions	DERL-7 (IL-2 2.5 ng/mL) [27]	KAI3 (IL-2 2.5 ng/mL) [26]	KHYG-1 (IL-2 2.5 ng/mL) [25]	NK-92 (IL-2 2.5 ng/mL) [22]	NK-YS (IL-2 2.5 ng/mL) [23]	NKL (IL-2 2.5 ng/mL) [28]	SNK-6 (IL-2 2.5 ng/mL) [21]	YT (IL-2 2.5 ng/mL) [20]	[19]	[24]
1 nM	7.34	-4.36	-5.22	-6.98	-4.53	-13.6	1.4	-6.25	3.3	6.57
10 nM	4.06	3.43	-1.93	-6.59	-0.35	-3.23	5.22	-2.68	-9.28	-0.47
100 nM	9.96	0.88	0.98	11.7	5.89	3.68	2.14	0.66	3.33	9.19
1000 nM	1.71	-7.37	0.03	12.3	2.91	3.36	2.9	-5.62	-10.7	-13.6
10000 nM	11.7	-7.23	4.04	18	11.4	-3.21	-16.1	0.29	-1.96	3.73

CC(C)n1nc(-c2ccc3oc(N)nc3c2)c2c(N)ncnc21 [MLN-0128] (max concentration tested 1000 nM)
percent inhibition of viability [%]
Conditions	0.1 nM	1 nM	10 nM	100 nM	1000 nM
IMC-1 (IL-2 20 ng/mL) [7]	-2.42	-1.34	-16.7	-30.3	19.6
[1]	-6.08	-1.99	18	40.5	44.1
[6]	-8.27	4.32	23.5	28	36.7
[8]	-6.15	0.85	15.6	13.5	35.5

Conditions	drug sensitivity score
IMC-1 (IL-2 20 ng/mL) [3]	0.2
[2]	8.27
[4]	3.64
[5]	9.64

CC(C)n1nc(-c2ccc3oc(N)nc3c2)c2c(N)ncnc21 [INK128] (max concentration tested 1000 nM)
Conditions	drug sensitivity score
DERL-7 (IL-2 2.5 ng/mL) [17]	19.2
KAI3 (IL-2 2.5 ng/mL) [16]	13.1
KHYG-1 (IL-2 2.5 ng/mL) [15]	8.73
NK-92 (IL-2 2.5 ng/mL) [12]	14.1
NK-YS (IL-2 2.5 ng/mL) [13]	10.7
NKL (IL-2 2.5 ng/mL) [18]	17.1
SNK-6 (IL-2 2.5 ng/mL) [11]	10.6
YT (IL-2 2.5 ng/mL) [10]	14.1
[9]	7.91
[14]	4.47

percent inhibition of viability [%]
Conditions	DERL-7 (IL-2 2.5 ng/mL) [27]	KAI3 (IL-2 2.5 ng/mL) [26]	KHYG-1 (IL-2 2.5 ng/mL) [25]	NK-92 (IL-2 2.5 ng/mL) [22]	NK-YS (IL-2 2.5 ng/mL) [23]	NKL (IL-2 2.5 ng/mL) [28]	SNK-6 (IL-2 2.5 ng/mL) [21]	YT (IL-2 2.5 ng/mL) [20]	[19]	[24]
0.1 nM	-4.21	-5.24	-4.72	-2.13	-11.2	0.39	-24	-1.84	-6.36	-19.8
1 nM	-1.17	-1.02	1.98	9.63	-5.11	1.73	-3.64	1.95	5.5	6.92
10 nM	39.4	24.1	3.77	22.5	6.74	38.8	15.8	15.8	19.8	15.4
100 nM	76.1	54.6	33	60.8	51.9	63.9	45.9	65.5	31.3	17.9
1000 nM	91.4	70.3	83.9	74.7	71.6	70.2	41.9	78	40.5	34.9

N.N.[Cl][Pt][Cl] [Cisplatin] (max concentration tested 100000 nM)
percent inhibition of viability [%]
Conditions	10 nM	100 nM	1000 nM	10000 nM	100000 nM
IMC-1 (IL-2 20 ng/mL) [7]	0.88	-0.16	84.2	100	100
[1]	2.08	1.39	16.1	62.8	99.8
[6]	-10.5	-3.22	-1.72	25.3	92.7
[8]	-4.27	1.37	-2.08	24	96.7

Conditions	drug sensitivity score
IMC-1 (IL-2 20 ng/mL) [3]	27.8
[2]	8.93
[4]	9.04
[5]	14.1

CCN(CC)CCCC(C)Nc1ccnc2cc(Cl)ccc12 (stereo not drawn) [Chloroquine] (max concentration tested 100000 nM)
percent inhibition of viability [%]
Conditions	10 nM	100 nM	1000 nM	10000 nM	100000 nM
IMC-1 (IL-2 20 ng/mL) [7]	-9.53	-2.15	-3.29	-3.07	99.8
[1]	-7.98	-8.65	-3.82	76	101
[6]	-5.74	2.44	3.84	28.9	101
[8]	-6.29	3.82	7.92	52.1	101

Conditions	drug sensitivity score
IMC-1 (IL-2 20 ng/mL) [3]	5.31
[2]	9.79
[4]	11.8
[5]	14.2

CCCCCCCCCCCCCCCCCCOP(=O)([O-])OC1CC[N+](C)(C)CC1 [Perifosine] (max concentration tested 2500 nM)
percent inhibition of viability [%]
Conditions	0.25 nM	2.5 nM	25 nM	250 nM	2500 nM
IMC-1 (IL-2 20 ng/mL) [7]	-3.43	-7.43	0.31	2.67	10.9
[1]	-10.4	-4.12	-6.08	9.36	14
[6]	-4.58	-3.48	-0.26	4.53	7.26
[8]	-6.26	-5.2	0.44	3.24	9.26

Conditions	drug sensitivity score
IMC-1 (IL-2 20 ng/mL) [3]	0.06
[2]	0
[4]	0
[5]	0.73

CON(C)C(=O)N1N=C(c2cc(F)ccc2F)S[C@@]1(CCCN)c1ccccc1 [Filanesib] (max concentration tested 1000 nM)
percent inhibition of viability [%]
Conditions	0.1 nM	1 nM	10 nM	100 nM	1000 nM
IMC-1 (IL-2 20 ng/mL) [7]	0.48	0.61	99.5	100	99.5
[1]	5.43	2.85	56.5	56.8	56.8
[6]	-10.4	4.01	3.31	2.78	0.91
[8]	-8.61	0.04	1.29	2.17	-3.73

Conditions	drug sensitivity score
IMC-1 (IL-2 20 ng/mL) [3]	30.5
[2]	0
[4]	0
[5]	18.2
